Test results as given in patent publication US20240150293A1, “SPIROCYCLOHEXANE DERIVATIVES, PHARMACEUTICAL COMPOSITIONS CONTAINING THEM AND THEIR USES AS ANTI-APOPTOTIC INHIBITORS” (LES LABORATOIRES SERVIER, priority 2021, published 2024).

Experiments:
[1] = test system: NCI-H929 cell lines; test: In vitro cytotoxicity, CellTiter-Glo (CTG) assay (Example B, Method B); format: cell-based; conditions: Homo sapiens, NCI-H929, 48 h, NCI-H929 cells, 48 h incubation, read-out: C50
Outline: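 NCI-H929 cells exposed to an 11-point compound series from 10 mM DMSO stocks (top final 30 μM) for 48 h at 37° C., 5% CO2. Viability measured as ATP by CellTiter-Glo luminescence; C50 is the concentration giving 50% cellular viability.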

[2] = target: Cy5-labelled Mcl1 (amino acids 171-321) C286S protein (UniProtKB Q07820) (Homo sapiens (Human), UniProt Q07820, C286S); test: Inhibition of Mcl-1 by the fluorescence quenching assay (Example A, Method B); format: binding; conditions: for inhibition at 1 µM: read-out: Mcl-1 inhibition, % at a single concentration
Outline: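 Cy5-labelled Mcl1 171-321 C286S (1 nM) quenched by TQ5WS-labelled PUMA peptide (10, 20 or 400 nM); displacement raises fluorescence (Ex 620/Em 680 nm). Buffer 10 mM HEPES, 150 mM NaCl, 0.05% Tween 20, pH 7.4, 5% DMSO; 2 h at room temperature, 11-point curves, IC50 converted to Ki (cKi/eKi).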

Cy5-labelled Mcl1 (amino acids 171-321) C286S protein, sequence (Q07820 171-321 C286S): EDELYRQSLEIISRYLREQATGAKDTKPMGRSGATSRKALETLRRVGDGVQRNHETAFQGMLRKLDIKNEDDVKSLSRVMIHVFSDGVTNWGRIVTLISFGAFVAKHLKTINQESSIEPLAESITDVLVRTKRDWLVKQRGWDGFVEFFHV

Ki [2]	inhibition at 1 µM [2]	Structure (SMILES)	IC50 [1]
162 nM	–	CC(OC(=O)OC1CCCC1)OC(=O)[C@]1(Nc2cccc(Cl)c2)CC[C@@]2(CC1)c1cc3c(cc1C[C@@H]2C[C@@H](C)COc1ccnc2c1[C@H](C)CCC2)OCO3 (stereo partly drawn) [Example 945, 1-{[(cyclopentyloxy)carbonyl]oxy}ethyl (1r,4S,6′S)-4-(3-chloroanilino)-6′-[(2R)-2-methyl-3-{[(5R)-5-methyl-5,6,7,8-tetrahydroquinolin-4-yl]oxy}propyl]-6′,7′-dihydro-2′H-spiro[cyclohexane-1,5′-indeno[5,6-d][1,3]dioxole]-4-carboxylate]	24700 nM
11 nM	–	COC(=O)OCOC(=O)[C@]1(Nc2cccc(Cl)c2)CC[C@@]2(CC1)c1cc3c(cc1C[C@@H]2C[C@@H](C)COc1ccnc2c1[C@H](C)CCC2)OCO3 [Example 946, [(methoxycarbonyl)oxy]methyl (1r,4S,6′S)-4-(3-chloroanilino)-6′-[(2R)-2-methyl-3-{[(5R)-5-methyl-5,6,7,8-tetrahydroquinolin-4-yl]oxy}propyl]-6′,7′-dihydro-2′H-spiro[cyclohexane-1,5′-indeno[5,6-d][1,3]dioxole]-4-carboxylate]	34.2 nM
0.256 nM	–	COCCNC(=O)OC(C)OC(=O)[C@]1(Nc2cccc(Cl)c2)CC[C@@]2(CC1)c1cc3c(cc1C[C@@H]2C[C@@H](C)COc1ccnc2c1[C@H](C)CCC2)OCO3 (stereo partly drawn) [Example 947, 1-{[(2-methoxyethyl)carbamoyl]oxy}ethyl (1r,4S,6′S)-4-(3-chloroanilino)-6′-[(2R)-2-methyl-3-{[(5R)-5-methyl-5,6,7,8-tetrahydroquinolin-4-yl]oxy}propyl]-6′,7′-dihydro-2′H-spiro[cyclohexane-1,5′-indeno[5,6-d][1,3]dioxole]-4-carboxylate]	604 nM
64.9 nM	–	CC(OC(=O)N1CCOCC1)OC(=O)[C@]1(Nc2cccc(Cl)c2)CC[C@@]2(CC1)c1cc3c(cc1C[C@@H]2C[C@@H](C)COc1ccnc2c1[C@H](C)CCC2)OCO3 (stereo partly drawn) [Example 948, 1-({(1r,4S,6′S)-4-(3-chloroanilino)-6′-[(2R)-2-methyl-3-{[(5R)-5-methyl-5,6,7,8-tetrahydroquinolin-4-yl]oxy}propyl]-6′,7′-dihydro-2′H-spiro[cyclohexane-1,5′-indeno[5,6-d][1,3]dioxole]-4-carbonyl}oxy)ethyl morpholine-4-carboxylate]	7120 nM
–	13.6%	CCN(CC)C(=O)OC(C)OC(=O)[C@]1(Nc2cccc(Cl)c2)CC[C@@]2(CC1)c1cc3c(cc1C[C@@H]2C[C@@H](C)COc1ccnc2c1[C@H](C)CCC2)OCO3 (stereo partly drawn) [Example 949, 1-[(diethylcarbamoyl)oxy]ethyl (1r,4S,6′S)-4-(3-chloroanilino)-6′-[(2R)-2-methyl-3-{[(5R)-5-methyl-5,6,7,8-tetrahydroquinolin-4-yl]oxy}propyl]-6′,7′-dihydro-2′H-spiro[cyclohexane-1,5′-indeno[5,6-d][1,3]dioxole]-4-carboxylate]	> 30000 nM
–	7.1%	CCN(CC)C(=O)OCOC(=O)[C@]1(Nc2cccc(Cl)c2)CC[C@@]2(CC1)c1cc3c(cc1C[C@@H]2C[C@@H](C)COc1ccnc2c1[C@H](C)CCC2)OCO3 [Example 950, [(diethylcarbamoyl)oxy]methyl (1r,4S,6′S)-4-(3-chloroanilino)-6′-[(2R)-2-methyl-3-{[(5R)-5-methyl-5,6,7,8-tetrahydroquinolin-4-yl]oxy}propyl]-6′,7′-dihydro-2′H-spiro[cyclohexane-1,5′-indeno[5,6-d][1,3]dioxole]-4-carboxylate]	> 30000 nM

Structure (SMILES)	Ki [2]	inhibition at 1 µM [2]	IC50 [1]
C[C@@H](COc1ccnc2c1[C@H](C)CCC2)C[C@H]1Cc2cc3c(cc2[C@]12CC[C@@](Nc1cccc(Cl)c1)(C(=O)OCOP(=O)(OC(C)(C)C)OC(C)(C)C)CC2)OCO3 [Example 951, [(di-tert-butoxyphosphoryl)oxy]methyl (1r,4S,6′S)-4-(3-chloroanilino)-6′-[(2R)-2-methyl-3-{[(5R)-5-methyl-5,6,7,8-tetrahydroquinolin-4-yl]oxy}propyl]-6′,7′-dihydro-2′H-spiro[cyclohexane-1,5′-indeno[5,6-d][1,3]dioxole]-4-carboxylate]	36.9 nM	–	1790 nM
